Counter-ions that a name gives are not always drawn.
How the values were obtained:
[1] = Cell Titer Glo 2.0 cell viability assay; conditions: human, K562 cells
Procedure: Compounds described herein were screened for toxicity in K562 (human chronic myelogenous leukemia) cells using a Cell Titer Glo 2.0 assay.
• Promega CellTiter-Gbo® 2.0 Cell Viability Assay (cat #G9241) • Corning 384-well TC-treated microplates (cat #3570)
Cells were plated at 500 cells/well (K562 cells) in 45 μL of IMDM supplemented with 10% FBS in a 384-well opaque plate. Wells containing only medium were used as a blank control. Test compounds (e.g., compounds of Formula (I), (II), and (III)) were first serially diluted in DMSO then diluted 1:100 with IMDM+10% FBS. The final concentration of DMSO was 0.1% in each well. The cells were incubated for 72 hours at 37° C. and 5% CO2 before assaying with Cell Titer Glo 2.0 reagent.

MYB mRNA = assay: Splicing RT-qPCR assay, MYB canonical (CJ) and alternative (AJ) junction mRNA; type: cell-based; conditions: Homo sapiens, A673 or K562 cells, 24 hours treatment; for IC50: decrease in CJ mRNA; for AC50: increase in AJ mRNA
Procedure, shortened: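 Compound-treated A673 or K562 cells (11-point 3-fold dilution, top dose 10 uM final, DMSO ≤0.25%) were incubated for 24 h at 37° C. Lysates underwent one-step RT-qPCR for canonical and alternative-exon junction isoforms. Normalization used PPIA for A673 and GAPDH or GUSB for K562.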

[2] = test system: HiBiT-tagged HTT protein in K562 cells; assay: HiBiT protein abundance assay, HTT; type: cell-based, human; conditions: HiBiT-modified K562 cells, 24 hours, luminescence
Procedure, shortened: (§1)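 K562 lines with the endogenous target HiBiT-tagged, seeded in IMDM+1% FBS, got a 10-point 3-fold dilution series (top final 10 μM, DMSO ≤0.25%) for 24 hours at 37° C. Lytic LgBiT luminescence was normalized against unmodified-K562 and DMSO-only controls, and IC50 was interpolated at 50% from a four-parameter logistic fit.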

[3] = test system: HiBiT-tagged MYB protein in K562 cells; assay: HiBiT protein abundance assay, MYB; type: cell-based, human; conditions: HiBiT-modified K562 cells, 24 hours, luminescence
Procedure, shortened: as §1

For Cc1cc(-c2cc(=O)n3cc(N4CCN(C)CC4)sc3n2)cc2cn(C)nc12 [Compound 109, 7-(2,7-dimethyl-2H-indazol-5-yl)-2-(4-methylpiperazin-1-yl)-5H-thiazolo[3,2-a]pyrimidin-5-one], the GI50 at 72 h [1] was 1000 to 10000 nM, the IC50 (MYB mRNA) was > 10000 nM and the AC50 (MYB mRNA) was 1000 to 10000 nM. For the same compound, the IC50 [2] was > 10000 nM and the IC50 [3] was > 10000 nM.

Work on Cc1cn2cc(-c3cc(=O)n4nc(N5CCN(C)CC5)sc4n3)cc(F)c2n1 [Compound 159, 7-(8-fluoro-2-methylimidazo[1,2-a]pyridin-6-yl)-2-(4-methylpiperazin-1-yl)-5H-[1,3,4]thiadiazolo[3,2-a]pyrimidin-5-one] yielded a GI50 at 72 h [1] of 1000 to 10000 nM, an IC50 (MYB mRNA) of 1000 to 10000 nM and an AC50 (MYB mRNA) of 1000 to 10000 nM. The IC50 [2] was 1000 to 10000 nM and the IC50 [3] was 1000 to 10000 nM.

For Cc1cn2nc(-c3nc4ncn(C5CCNCC5)c(=O)c4s3)cc(C)c2n1 [Compound 231, 2-(2,8-dimethylimidazo[1,2-b]pyridazin-6-yl)-6-(piperidin-4-yl)thiazolo[4,5-d]pyrimidin-7(6H)-one], the GI50 at 72 h [1] was 1000 to 10000 nM, the IC50 (MYB mRNA) was 100 to 1000 nM and the AC50 (MYB mRNA) was 100 to 1000 nM. The IC50 [2] was 100 to 1000 nM and the IC50 [3] was 100 to 1000 nM.

Work on Cc1cn2cc(-c3nn4c(=O)cc(N5CCNC6(CC6)C5)nc4s3)cc(F)c2n1 [Compound 216, 2-(8-fluoro-2-methylimidazo[1,2-a]pyridin-6-yl)-7-(4,7-diazaspiro[2.5]octan-7-yl)-5H-[1,3,4]thiadiazolo[3,2-a]pyrimidin-5-one] yielded a GI50 at 72 h [1] of 1000 to 10000 nM, an IC50 (MYB mRNA) of 1000 to 10000 nM and an AC50 (MYB mRNA) of 1000 to 10000 nM. The IC50 [2] was 1000 to 10000 nM and the IC50 [3] was 1000 to 10000 nM.

Cc1cc(-c2nn3c(=O)cc(N4CCN(C)CC4)nc3s2)cc2cn(C)nc12 [Compound 210, 2-(2,7-dimethyl-2H-indazol-5-yl)-7-(4-methylpiperazin-1-yl)-5H-[1,3,4]thiadiazolo[3,2-a]pyrimidin-5-one] gave a GI50 at 72 h [1] of 1000 to 10000 nM, an IC50 (MYB mRNA) of 1000 to 10000 nM and an AC50 (MYB mRNA) of 1000 to 10000 nM. The IC50 [2] was 1000 to 10000 nM and the IC50 [3] was 1000 to 10000 nM.

Cc1cn2cc(-c3nn4c(=O)cc(N5CCN(C)C6(CC6)C5)nc4s3)cc(F)c2n1 [Compound 218, 2-(8-fluoro-2-methylimidazo[1,2-a]pyridin-6-yl)-7-(4-methyl-4,7-diazaspiro[2.5]octan-7-yl)-5H-[1,3,4]thiadiazolo[3,2-a]pyrimidin-5-one] gave a GI50 at 72 h [1] of 1000 to 10000 nM, an IC50 (MYB mRNA) of 1000 to 10000 nM and an AC50 (MYB mRNA) of 1000 to 10000 nM. For the same compound, the IC50 [2] was 1000 to 10000 nM and the IC50 [3] was 1000 to 10000 nM.

For COc1cc(-c2cc3ncn(C4CCNCC4)c(=O)c3s2)cnn1 [Compound 260], the GI50 at 72 h [1] was 1000 to 10000 nM, the IC50 (MYB mRNA) was 1000 to 10000 nM and the AC50 (MYB mRNA) was 1000 to 10000 nM. For the same compound, the IC50 [2] was 1000 to 10000 nM and the IC50 [3] was 1000 to 10000 nM.

With Cc1cc(-c2cc(=O)n3nc(N4CCN(C)CC4)sc3n2)cc2cn(C)nc12 [Compound 157, 7-(2,7-dimethyl-2H-indazol-5-yl)-2-(4-methylpiperazin-1-yl)-5H-[1,3,4]thiadiazolo[3,2-a]pyrimidin-5-one] the GI50 at 72 h [1] was > 10000 nM, the IC50 (MYB mRNA) was > 10000 nM and the AC50 (MYB mRNA) was > 10000 nM. The IC50 [2] was > 10000 nM and the IC50 [3] was > 10000 nM.

In the case of Cc1cn2nc(-c3cn4c(=O)cc(N5CCNC6(CC6)C5)nc4s3)cc(C)c2n1 [Compound 212, 2-(2,8-dimethylimidazo[1,2-b]pyridazin-6-yl)-7-(4,7-diazaspiro[2.5]octan-7-yl)-5H-thiazolo[3,2-a]pyrimidin-5-one], the GI50 at 72 h [1] is reported as 1000 to 10000 nM, the IC50 (MYB mRNA) is reported as 1000 to 10000 nM and the AC50 (MYB mRNA) is reported as 1000 to 10000 nM. It also gave an IC50 [2] of 1000 to 10000 nM and an IC50 [3] of 1000 to 10000 nM.

In the case of Cc1cn2cc(-c3cc4ncn(C5CCNCC5)c(=O)c4s3)ncc2n1 [Compound 264], the GI50 at 72 h [1] is reported as 1000 to 10000 nM, the IC50 (MYB mRNA) is reported as 1000 to 10000 nM and the AC50 (MYB mRNA) is reported as 1000 to 10000 nM. The IC50 [2] was 1000 to 10000 nM and the IC50 [3] was 1000 to 10000 nM.

For Cc1cn2nc(-c3nc4sc(N5CCNCC5)nc4c(=O)[nH]3)cc2c(C)n1 [Compound 267], the GI50 at 72 h [1] was 100 to 1000 nM, the IC50 (MYB mRNA) was 100 to 1000 nM and the AC50 (MYB mRNA) was 100 to 1000 nM. The IC50 [2] was 100 to 1000 nM and the IC50 [3] was 100 to 1000 nM.

In the case of Cc1cc(-c2cc3ncn(C4CCN(C)CC4)c(=O)c3s2)cc2cn(C)nc12 [Compound 237, 6-(2,7-dimethyl-2H-indazol-5-yl)-3-(1-methylpiperidin-4-yl)thieno[3,2-d]pyrimidin-4(3H)-one], the GI50 at 72 h [1] is reported as 100 to 1000 nM, the IC50 (MYB mRNA) is reported as 100 to 1000 nM and the AC50 (MYB mRNA) is reported as < 100 nM. For the same compound, the IC50 [2] was 100 to 1000 nM and the IC50 [3] was < 100 nM.

For Cc1cn2cc(-c3nc4cnn(C5CCNCC5)c(=O)c4s3)nc(C)c2n1 [Compound 812, 2-(2,8-dimethylimidazo[1,2-a]pyrazin-6-yl)-6-(piperidin-4-yl)thiazolo[4,5-d]pyridazin-7(6H)-one], the GI50 at 72 h [1] was 100 to 1000 nM, the IC50 (MYB mRNA) was > 10000 nM and the AC50 (MYB mRNA) was > 10000 nM. The IC50 [2] was 100 to 1000 nM and the IC50 [3] was 100 to 1000 nM.

Compound Cc1cn2cc(-c3cn4c(=O)cc(N5CCNC6(CC6)C5)nc4s3)cc(F)c2n1 [Compound 208, 2-(8-fluoro-2-methylimidazo[1,2-a]pyridin-6-yl)-7-(4,7-diazaspiro[2.5]octan-7-yl)-5H-thiazolo[3,2-a]pyrimidin-5-one] has a GI50 at 72 h [1] of 1000 to 10000 nM, an IC50 (MYB mRNA) of 1000 to 10000 nM and an AC50 (MYB mRNA) of 1000 to 10000 nM. The IC50 [2] was 1000 to 10000 nM and the IC50 [3] was 1000 to 10000 nM.

For Cc1cn2cc(-c3nn4c(=O)cc(N5CCN(C)CC5)nc4s3)cc(F)c2n1 [Compound 217, 2-(8-fluoro-2-methylimidazo[1,2-a]pyridin-6-yl)-7-(4-methylpiperazin-1-yl)-5H-[1,3,4]thiadiazolo[3,2-a]pyrimidin-5-one], the GI50 at 72 h [1] was 1000 to 10000 nM, the IC50 (MYB mRNA) was 1000 to 10000 nM and the AC50 (MYB mRNA) was 1000 to 10000 nM. It also gave an IC50 [2] of 1000 to 10000 nM and an IC50 [3] of 1000 to 10000 nM.

In the case of Cc1cn2cc(-c3cc4ncn(C5CCCNCC5)c(=O)c4s3)cc(F)c2n1 (stereo not drawn) [Compound 275, 3-(azepan-4-yl)-6-{8-fluoro-2-methylimidazo[1,2-a]pyridin-6-yl}thieno[3,2-d]pyrimidin-4-one], the GI50 at 72 h [1] is reported as 100 to 1000 nM, the IC50 (MYB mRNA) is reported as 100 to 1000 nM and the AC50 (MYB mRNA) is reported as 100 to 1000 nM. The IC50 [2] was 100 to 1000 nM and the IC50 [3] was 100 to 1000 nM.

Compound Cc1nc(-c2nc3cnn(C4CCNCC4)c(=O)c3s2)cc2cn(C)nc12 [Compound 811] has a GI50 at 72 h [1] of 1000 to 10000 nM, an IC50 (MYB mRNA) of 1000 to 10000 nM and an AC50 (MYB mRNA) of 1000 to 10000 nM. The IC50 [2] was 1000 to 10000 nM and the IC50 [3] was 1000 to 10000 nM.

With Cc1cn2cc(-c3cc4ncn([C@H]5CCN[C@@H](C)C5)c(=O)c4s3)cc(F)c2n1 (relative stereo) [Compound 278, 6-{8-fluoro-2-methylimidazo[1,2-a]pyridin-6-yl}-3-[(cis)-2-methylpiperidin-4-yl]thieno[3,2-d]pyrimidin-4-one hydrochloride] the GI50 at 72 h [1] was 100 to 1000 nM, the IC50 (MYB mRNA) was 100 to 1000 nM and the AC50 (MYB mRNA) was 100 to 1000 nM. The IC50 [2] was 100 to 1000 nM and the IC50 [3] was 100 to 1000 nM.

With Cc1cn2cc(-c3cc4ncn(C5CCNC5)c(=O)c4s3)cc(F)c2n1 (stereo not drawn) [Compound 270, 6-{8-fluoro-2-methylimidazo[1,2-a]pyridin-6-yl}-3-(pyrrolidin-3-yl)thieno[3,2-d]pyrimidin-4-one] the GI50 at 72 h [1] was 100 to 1000 nM, the IC50 (MYB mRNA) was 100 to 1000 nM and the AC50 (MYB mRNA) was 100 to 1000 nM. For the same compound, the IC50 [2] was 100 to 1000 nM and the IC50 [3] was 100 to 1000 nM.

For Cc1cn2cc(-c3cn4c(=O)cc(N5CCNCC5)nc4s3)cc(F)c2n1 [Compound 213, 2-(8-fluoro-2-methylimidazo[1,2-a]pyridin-6-yl)-7-(piperazin-1-yl)-5H-thiazolo[3,2-a]pyrimidin-5-one], the GI50 at 72 h [1] was > 10000 nM, the IC50 (MYB mRNA) was > 10000 nM and the AC50 (MYB mRNA) was > 10000 nM. The IC50 [2] was > 10000 nM and the IC50 [3] was > 10000 nM.

Cc1nc(-c2cc3ncn(C4CCNCC4)c(=O)c3s2)cc2cn(C)nc12 [Compound 271] showed a GI50 at 72 h [1] of 1000 to 10000 nM, an IC50 (MYB mRNA) of 100 to 1000 nM and an AC50 (MYB mRNA) of 1000 to 10000 nM. For the same compound, the IC50 [2] was 1000 to 10000 nM and the IC50 [3] was 1000 to 10000 nM.
